How the values were obtained:
[1] = test system: HeLa (human cervix carcinoma) cells; assay: MTT cytotoxicity assay, HeLa; type: cell-based; conditions: for IC50: Homo sapiens, HeLa, 48 h incubation with cells, MTT; for reduction of viability of HeLa cells: initial screening, 100 μM, 48 h
Experimental: (§1) Fourteen new benzofuran derivatives were tested for their cytotoxic properties in K562, MOLT-4 (leukemia, suspension cells), HeLa (cervix carcinoma, adherent cells), and normal endothelial cells (HUVEC). First, we measured the viability of cells after 48 h incubation with the given compound at the concentration of 100 μM. Next, for compounds that reduced cancer cells survival for more than 50%, we determined IC50 values. Cells that were exposed to 1% DMSO (a vehicle) served as the control with 100% survival. Cells treated with 1 µM staurosporine served as the internal control of the cytotoxicity experiments.
(§2) Human umbilical vein endothelial cells (Life Technologies, Waltham, MA, USA) were cultured (according to the manufacturer instructions) in Medium 200 supplemented with Low Serum Growth Supplement. 1 × 10^4 HUVEC cells were seeded on each well on a 96-well plate (Nunc). The HeLa (human cervix carcinoma) K562 and MOLT-4 (leukemia) cells were cultured in RPMI 1640 medium supplemented with antibiotics and 10% fetal calf serum (HeLa, K562) in a 5% CO2-95% air atmosphere. 7 × 10^3 HeLa, K562, or MOLT-4 cells were seeded on each well on 96-well plate (Nunc). 24 h later cells were treated with the test compounds and then incubated for an additional 48 hours. Stock solutions of test compounds were freshly prepared in DMSO (dimethylsulfoxide). The final concentrations of compounds that were tested in the cell cultures were: 2 × 10^−1, 1 ×10^−1, 5 × 10^−2, 1 × 10^−2, 1 × 10^−3 and 1 × 10^−4 mM. The concentration of DMSO in the cell culture medium was 1%.
(§3) The values of IC50 (the concentration of test compound that is required to reduce the cell survival fraction to 50% of the control) were calculated from dose-response curves and used as a measure of cellular sensitivity to a given treatment.
(§4) The MTT [3-(4,5-dimethylthiazol-2-yl)-2,5-diphenyltetrazolium bromide; Sigma, St. Louis, MO, USA] assay determined the cytotoxicity of all the compounds, as described previously. Briefly, after 24 h or 48 h of incubation with the drug, the cells were treated with the MTT reagent, and incubation was continued for 2 h. MTT-formazan crystals were dissolved in 20% SDS and 50% DMF at pH 4.7 and absorbance was read at 570 and 650 nm on an ELISA-PLATE READER (FLUOstar Omega, BMG LABTECH GmbH, Ortenberg, Germany). As a control (100% viability), cells that were grown in the presence of medium vehicle only with 1% DMSO were used.

[2] = test system: plasmid DNA (pcDNA3.1 HisC); assay: Digestion of plasmid DNA with BamHI restriction nuclease; type: biochemical; conditions: 100 µM, overnight 37 °C, then BamHI 3 h; agarose gel
Excerpt: We hypothesized that a possible explanation of observed cytotoxicity might be due to an interaction of test benzofurans with genomic DNA (e.g., by intercalation). To verify this hypothesis, we investigated whether the test benzofurans have any effect on digestion of a plasmid DNA (pcDNA3.1 HisC) with endonuclease BamH1. pcDNA3.1 HisC contains a unique BamH1 restriction site which allows for plasmid linearization. Plasmid DNA exists in linear, superhelical, and circular forms that differ in electrophoretic mobility (Figure 6 lane 1). Plasmid DNA was converted to a linear form upon digestion with BamH1 (lane 2). […] In the presence of test compounds, pcDNA3.1 HisC was partially digested with Bam H1 restriction enzyme (Figure 6 lanes 4–7). Most of the plasmid DNA was converted to a linear form, however there is a circular form still present.
0.5 μg of plasmid DNA (pcDNAHisC, total length 5.5 kbp) containing a unique BamHI restriction site was dissolved in a 1× BamHI reaction buffer and then incubated overnight at 37 °C with the test compounds or daunorubicin, a strong intercalating agent, which was used as a positive control. The concentration of the test compounds and daunorubicin samples was 100 µM. In the next step, the reaction mixtures were digested with BamHI restriction endonuclease (2 U/μL) for 3 h at 37 °C. The total reaction volume was 10 μL. Products of the reaction were subjected to the 1% agarose gel electrophoresis in TBE buffer. The gel was stained with ethidium bromide and DNA fragments were visualized under a UV lamp (GBox, Syngene, Cambridge, UK).
Figure 6 Digestion of pcDNA3.1HisC (total length 5.5kbp) with BamH1 endonuclease. M—marker DNA; 1—not digested plasmid DNA; 2—plasmid DNA digested with BamH1 (DNA present in linear form); 3—plasmid DNA + daunorubicin + BamH1; 4—plasmid DNA + 1c + BamH1; 5—plasmid DNA + 2d + BamH1; 6—plasmid DNA + 1e + BamH1; and, 7—plasmid DNA + 3d + BamH1.

[3] = test system: Human umbilical vein endothelial cells (HUVEC); assay: MTT cytotoxicity assay, HUVEC; type: cell-based; conditions: for IC50: Homo sapiens, HUVEC, 48 h incubation with cells, MTT; for cytotoxicity against human normal endothelial cells: initial screening, 100 μM, 48 h
Experimental: as §1, §2, §3, §4

MOLT-4 (leukemia) cells = assay: MTT cytotoxicity assay, MOLT-4; type: cell-based, human; conditions: for IC50: Homo sapiens, MOLT-4, 48 h incubation with cells, MTT; for reduction of viability of MOLT-4 cells: initial screening, 100 μM, 48 h
Experimental: as §1, §2, §3, §4

K562 (leukemia) cells = assay: MTT cytotoxicity assay, K562; type: cell-based, human; conditions: for IC50: 48 h incubation with cells, MTT; for reduction of viability of K562 cells: initial screening, 100 μM, 48 h
Experimental: as §1, §2, §3, §4

[4] = test system: caspase 3/7 in K562 cells; assay: Apo-ONE Homogeneous Caspase-3/7 Assay in K562 cells; type: cell-based, human; conditions: compound at 5 × IC50 (staurosporine 1 µM), 18 h, 1% DMSO normalized to 1.0
Experimental: We have measured the activity of caspases 3 and 7 (caspase 3/7), which are markers of programmed cell death. […] The activity of caspase 3/7 was measured using pro-fluorescent peptide substrate.
20 × 10^3 K562 cells were seeded on each well of 96-well plate in RPMI 1640 medium supplemented with 10% fetal calf serum and antibiotics. Cells were grown for 24 h at 37 °C and 5% CO2. The test compounds were dissolved in DMSO and added to the cell culture. The concentration of tested benzo[b]furans in cell culture was 5 × IC50.
Cells treated with 1% DMSO served as a negative control, while cells incubated with staurosporine (a strong inducer of apoptosis) were used as a positive control. Cells were exposed to test compounds for 18 h at 37 °C and 5% CO2. Subsequently, Apo-ONE® Homogeneous Caspase-3/7 Assay (Promega, Madison, WI, USA) measured the activity of caspase 3 and 7, according to the manufacturer’s instructions. Briefly, the cells were lysed and incubated for 1.5 h with profluorescent substrate for caspase 3 and 7. Next, fluorescence was read at an excitation wavelength of 485 nm and emission of 520 nm with FLUOStar Omega plate reader (BMG-Labtech, Ortenberg, Germany).
Figure 5 Activity of caspase 3 and 7 in K562 cells treated with the test benzofurans 1c, 1e, 2d, 3d, or staurosporine for 18 h. Apoptosis was determined by Apo-ONE® Homogeneous Caspase-3/7 Assay (Promega, Madison, WI, USA). Abbreviations: DMSO—K562 cells treated with 1% DMSO. The caspase activation level in cells exposed to 1% DMSO was normalized to 1.0. Mean values +/− SD are shown.

cancer cell lines = assay: MTT cytotoxicity, cancer cell lines overall; type: cell-based, human; conditions: compared to lead compounds VIII-X
Experimental: as §1, §2, §3, §4

cancer cells = test system: cancer cells; set-up: method as in PMID 25482722, PMID 30465514; conditions: previous studies; cited from earlier work
[5] = test system: healthy endothelial cells (HUVEC); set-up: method as in PMID 25482722, PMID 30465514; conditions: previous studies; cited from earlier work
K562 leukemic cell line = test system: K562 leukemic cell line; set-up: method as in PMID 25482722, PMID 30465514; conditions: previous studies; cited from earlier work
HL-60 leukemic cell line = test system: HL-60 leukemic cell line; set-up: method as in PMID 25482722, PMID 30465514; conditions: previous studies; cited from earlier work
HeLa cancer cells = test system: HeLa cancer cells; set-up: method as in PMID 25482722, PMID 30465514; conditions: previous studies; cited from earlier work

COc1cc2c(C)c(Br)oc2c(C(=O)CBr)c1OC [Compound 1e, 2-Bromo-1-(2-bromo-5,6-dimethoxy-3-methylbenzofuran-7-yl)ethanone]
IC50 [1]: 28 µM
reduction of viability of HeLa cells [1]: more than 50%
inhibition of digestion of plasmid DNA with BamH1 / interaction with DNA [2]: to some extent, interact with DNA
IC50 [3]: 30 µM
cytotoxicity against human normal endothelial cells [3]: cytotoxic
IC50 (MOLT-4 (leukemia) cells): 70 µM
reduction of viability of MOLT-4 cells (MOLT-4 (leukemia) cells): more than 50%
IC50 (K562 (leukemia) cells): 41 µM
IC50 (K562 (leukemia) cells; Homo sapiens, K562, 48 h): < 50 µM
reduction of viability of K562 cells (K562 (leukemia) cells): more than 50%
increase in the activity of caspase 3/7 [4]: five-fold

COC(=O)c1c(CBr)oc2cc(C(C)=O)c(O)cc12 [Compound 2d, Methyl 6-acetyl-2-(bromomethyl)-5-hydroxybenzofuran-3-carboxylate]
IC50 [1]: 35 µM
reduction of viability of HeLa cells [1]: more than 50%
inhibition of digestion of plasmid DNA with BamH1 / interaction with DNA [2]: to some extent, interact with DNA
IC50 [3]: 30 µM
cytotoxicity against human normal endothelial cells [3]: cytotoxic
IC50 (MOLT-4 (leukemia) cells): 35 µM
reduction of viability of MOLT-4 cells (MOLT-4 (leukemia) cells): more than 50%
decrease of cytotoxicity against human cancer cells compared to the lead compounds VIII-X (cancer cell lines): 5–10 folds
reduction of viability of K562 cells (K562 (leukemia) cells): more than 50%
increase in the activity of caspase 3/7 [4]: about two-fold

COC(=O)c1c(C)oc2cc(C(=O)C(Br)Br)c(O)c(Br)c12 [IX]
IC50 towards cancer cells (cancer cells): in a few µM range
toxicity towards endothelial cells (HUVEC) [5]: non-toxic

COc1cc2c(CBr)c(C(C)=O)oc2c(C(C)=O)c1OC [VIII]
IC50 (K562 leukemic cell line): 5 µM
IC50 (HL-60 leukemic cell line): 0.1 µM
IC50 [5]: > 1000 µM
IC50 (HeLa cancer cells): > 1000 µM

COC(=O)c1c(C)oc2cc(C(=O)C(Br)Br)c(OC)cc12 [X, methyl 6-(dibromoacetyl)-5-methoxy-2-methylbenzofuran-3-carboxylate]
IC50 towards cancer cells (cancer cells): in a few µM range
toxicity towards endothelial cells (HUVEC) [5]: non-toxic

— publication PMC6514909, “Synthesis of New Derivatives of Benzofuran as Potential Anticancer Agents” (Molecules, 2019)
